Test results reported in US10301267B2, “Compounds” (AstraZeneca AB, priority 2006, dated 2019).

Molecular target: FGFR1 active kinase (Homo sapiens, UniProt P11362)
Assay: FGFR Kinase assay - Caliper Echo Dosing
Assay type: biochemical
Details: FGFR1 7.2 nM, 408 uM ATP, acoustic dosing; geometric mean of n
Protocol: FGFR Kinase Assay—Caliper Echo Dosing
To determine inhibition of FGFR activity, kinase assays were conducted using Caliper technology.
Kinase activity assays were performed in Greiner 384-well low volume plates, with a total reaction volume of 12 ul per well. Final concentration of FGFR1 active kinase in each reaction well was 7.2 nM. The substrate for each assay was a custom peptide with fluorescent tag (13 amino acids in length, […] with the fluorescene tag on the first K).
Compounds were dispensed directly in to assay plates using a Labcyte Echo 550 acoustic droplet ejection unit. Each well received 120 nl of DMSO containing compound such that the final concentration of compound in the assay prior to the addition of the stop solution ranged between 30 uM and 30 pM. In addition to compounds each plate carried maximum and minimum control wells, the max wells contained 120 nl of DMSO and the min wells contained 120 nl of 10 mM staurosporine (LC Laboratories, MA 01801, USA Catalogue No. S-9300). The Enzyme (at 7.2 nM [final]) and Substrate (at 3.6 uM [final]) were added separately to the compound plates, in reaction buffer [comprising: 50 mM MOPS (Sigma, Catalogue No. M1254)—pH 6.5, 0.004% Triton (Sigma, Catalogue No. X-100), 2.4 mM DTT, 12 mM MgCl2, 408 uM ATP] resulting in a final DMSO concentration in the reaction mix of 1%.
Assay plates were incubated at room temperature for 1.5 h, before the reaction was stopped with the addition of buffer [comprising: 100 mM HEPES—pH7.5, 0.033% Brij-35 (Sigma Catalogue No. B4184), 0.22% Caliper Coating Reagent #3 (Caliper Life Sciences Catalogue No. 760050), 88 mM EDTA, 5% DMSO]. Stopped assay plates were then read using the Caliper LabChip® LC3000 (which uses microfludics to measure a shift in mobility between fluorescent labelled peptide and the FGFR1 kinase—phosphorylated form of this peptide).
In the assay, compounds were tested at a range of concentrations. […] Percentage inhibition at 1 uM, as expressed herein, is a calculated value based on the curve fit that was generated experimentally. From the fitted curve plot, the effect of compound at a concentration of 1 uM was calculated as a percentage inhibition. The IC50 is the concentration of compound, which inhibits FGFR1 kinase activity by 50% in the context of this assay. This value is calculated using a standard curve fitting software package Origin™.

Sequence of FGFR1 active kinase (P11362 22-822): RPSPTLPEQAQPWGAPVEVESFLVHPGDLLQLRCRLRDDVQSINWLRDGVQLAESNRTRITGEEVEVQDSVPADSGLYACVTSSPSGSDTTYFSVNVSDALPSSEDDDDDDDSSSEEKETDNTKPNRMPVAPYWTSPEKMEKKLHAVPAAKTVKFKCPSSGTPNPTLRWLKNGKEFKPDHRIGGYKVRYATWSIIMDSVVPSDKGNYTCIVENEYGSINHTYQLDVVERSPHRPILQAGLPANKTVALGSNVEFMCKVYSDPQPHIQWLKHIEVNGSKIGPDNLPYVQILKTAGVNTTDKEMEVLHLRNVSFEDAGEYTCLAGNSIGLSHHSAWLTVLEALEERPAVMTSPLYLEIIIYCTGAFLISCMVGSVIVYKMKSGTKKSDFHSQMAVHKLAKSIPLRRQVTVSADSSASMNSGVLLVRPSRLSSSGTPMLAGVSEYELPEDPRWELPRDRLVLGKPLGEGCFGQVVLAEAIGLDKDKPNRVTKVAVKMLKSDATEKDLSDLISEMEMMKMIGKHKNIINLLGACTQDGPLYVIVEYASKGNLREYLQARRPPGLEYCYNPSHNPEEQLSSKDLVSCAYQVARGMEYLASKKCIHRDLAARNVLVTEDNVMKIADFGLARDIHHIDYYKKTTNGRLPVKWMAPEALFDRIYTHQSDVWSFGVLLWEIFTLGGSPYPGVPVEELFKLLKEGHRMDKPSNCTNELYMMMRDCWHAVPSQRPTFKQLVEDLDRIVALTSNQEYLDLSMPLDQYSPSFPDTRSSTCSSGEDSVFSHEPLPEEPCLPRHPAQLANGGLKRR

| IC50 [nM] | Structure (SMILES) |
| --- | --- |
| 3 | CNC1CCN(c2cnc(C(=O)Nc3cc(CCc4cc(OC)cc(OC)c4)n[nH]3)cn2)C1 (centres unmarked) [Example 161, N-[5-[2-(3,5-dimethoxyphenyl)ethyl]-2H-pyrazol-3-yl]-5-(3-methylaminopyrrolidin-1-yl)pyrazine-2-carboxamide] |
| 1.8 | COc1cc(CCc2cc(NC(=O)c3cnc(N4CCCN(C)CC4)cn3)[nH]n2)cc(OC)c1 [Example 163, N-[5-[2-(3,5-dimethoxyphenyl)ethyl]-2H-pyrazol-3-yl]-5-(4-methyl-1,4-diazepan-1-yl)pyrazine-2-carboxamide] |
| 0.78 | C=CCN1CCCN(c2ccc(C(=O)Nc3cc(CCc4cc(OC)cc(OC)c4)n[nH]3)cc2)CC1 [Example 164, N-[5-[2-(3,5-dimethoxyphenyl)ethyl]-2H-pyrazol-3-yl]-4-(4-prop-2-enyl-1,4-diazepan-1-yl)benzamide] |
| 0.63 | COc1cc(CCc2cc(NC(=O)c3cnc(N4CCCN(C(C)C)CC4)cn3)[nH]n2)cc(OC)c1 [Example 167, N-[5-[2-(3,5-dimethoxyphenyl)ethyl]-2H-pyrazol-3-yl]-5-(4-propan-2-yl-1,4-diazepan-1-yl)pyrazine-2-carboxamide] |
| 2.7 | CCN1CCCN(c2cnc(C(=O)Nc3cc(CCc4cc(OC)cc(OC)c4)n[nH]3)cn2)CC1 [Example 169, N-[5-[2-(3,5-dimethoxyphenyl)ethyl]-2H-pyrazol-3-yl]-5-(4-ethyl-1,4-diazepan-1-yl)pyrazine-2-carboxamide] |
| 9.2 | CCN1CCCN(c2ncc(C(=O)Nc3cc(CCc4cc(OC)cc(OC)c4)n[nH]3)cn2)CC1 [Example 171, N-[5-[2-(3,5-dimethoxyphenyl)ethyl]-2H-pyrazol-3-yl]-2-(4-ethyl-1,4-diazepan-1-yl)pyrimidine-5-carboxamide] |
| 3.4 | C=CCN1CCCN(c2cnc(C(=O)Nc3cc(CCc4cc(OC)cc(OC)c4)n[nH]3)cn2)CC1 [Example 172, N-[5-[2-(3,5-dimethoxyphenyl)ethyl]-2H-pyrazol-3-yl]-5-(4-prop-2-enyl-1,4-diazepan-1-yl)pyrazine-2-carboxamide] |
| 3.7 | COc1cc(CCc2cc(NC(=O)c3cnc(N4CCCN(C5CC5)CC4)cn3)[nH]n2)cc(OC)c1 [Example 174, 5-(4-cyclopropyl-1,4-diazepan-1-yl)-N-[5-[2-(3,5-dimethoxyphenyl)ethyl]-2H-pyrazol-3-yl]pyrazine-2-carboxamide] |
| 7 | C=CCN1CCCN(c2ncc(C(=O)Nc3cc(CCc4cc(OC)cc(OC)c4)n[nH]3)cn2)CC1 [Example 175, N-[5-[2-(3,5-dimethoxyphenyl)ethyl]-2H-pyrazol-3-yl]-2-(4-prop-2-enyl-1,4-diazepan-1-yl)pyrimidine-5-carboxamide] |
| 5.8 | COc1cc(CCc2cc(NC(=O)c3cnc(N4CCCN(C)CC4)nc3)[nH]n2)cc(OC)c1 [Example 176, N-[5-[2-(3,5-dimethoxyphenyl)ethyl]-2H-pyrazol-3-yl]-2-(4-methyl-1,4-diazepan-1-yl)pyrimidine-5-carboxamide] |

More lines, now with the values behind:

| Structure (SMILES) | IC50 [nM] |
| --- | --- |
| COCCN1CCC(c2ccc(C(=O)Nc3cc(CCc4cc(OC)cc(OC)c4)n[nH]3)cc2)CC1 [Example 148, N-[5-[2-(3,5-dimethoxyphenyl)ethyl]-2H-pyrazol-3-yl]-4-[1-(2-methoxyethyl)piperidin-4-yl]benzamide] | 0.87 |
| COc1cc(CCc2cc(NC(=O)c3cnc(N4CCN[C@@H](C(C)C)C4)nc3)[nH]n2)cc(OC)c1 [Example 149, N-[5-[2-(3,5-dimethoxyphenyl)ethyl]-2H-pyrazol-3-yl]-2-[(3S)-3-propan-2-ylpiperazin-1-yl]pyrimidine-5-carboxamide] | 4.4 |
| COc1cc(CCc2cc(NC(=O)c3cnc(N4CCN(C)C(=O)C4)nc3)[nH]n2)cc(OC)c1 [Example 150, N-[5-[2-(3,5-dimethoxyphenyl)ethyl]-2H-pyrazol-3-yl]-2-(4-methyl-3-oxopiperazin-1-yl)pyrimidine-5-carboxamide] | 12 |
| COc1cc(COc2cc(NC(=O)c3ccc(N4CC5CCCNC5C4)cc3)[nH]n2)cc(OC)c1 (centres unmarked) [Example 151, 4-(1,2,3,4,4a,5,7,7a-octahydropyrrolo[3,4-b]pyridin-6-yl)-N-[5-[(3,5-dimethoxyphenyl)methoxy]-2H-pyrazol-3-yl]benzamide] | 1.3 |
| COc1cc(CCc2cc(NC(=O)c3cnc(C4CCN(C)CC4)cn3)[nH]n2)cc(OC)c1 [Example 152, N-[5-[2-(3,5-dimethoxyphenyl)ethyl]-2H-pyrazol-3-yl]-5-(1-methylpiperidin-4-yl)pyrazine-2-carboxamide] | 1.3 |
| COc1cc(CCc2cc(NC(=O)c3cnc(C4=CCN(C)CC4)cn3)[nH]n2)cc(OC)c1 [Example 153, N-[5-[2-(3,5-dimethoxyphenyl)ethyl]-2H-pyrazol-3-yl]-5-(1-methyl-3,6-dihydro-2H-pyridin-4-yl)pyrazine-2-carboxamide] | 0.82 |
| COc1cc(CCc2cc(NC(=O)c3ccc(N4C[C@@H](C)N(C)[C@@H](C)C4)cc3)[nH]n2)cc(OC)c1 [Example 155, N-[5-[2-(3,5-dimethoxyphenyl)ethyl]-2H-pyrazol-3-yl]-4-[(3R,5S)-3,4,5-trimethylpiperazin-1-yl]benzamide] | 0.45 |
| COc1cc(CCc2cc(NC(=O)c3ccc(N4CCCN(C)CC4)cc3)[nH]n2)cc(OC)c1 [Example 156, N-[5-[2-(3,5-dimethoxyphenyl)ethyl]-2H-pyrazol-3-yl]-4-(4-methyl-1,4-diazepan-1-yl)benzamide] | 0.81 |
| COc1cc(CCc2cc(NC(=O)c3cnc(N4CCC(N(C)C)C4)cn3)[nH]n2)cc(OC)c1 (centres unmarked) [Example 157, N-[5-[2-(3,5-dimethoxyphenyl)ethyl]-2H-pyrazol-3-yl]-5-(3-dimethylaminopyrrolidin-1-yl)pyrazine-2-carboxamide] | 2.4 |
| CCN(CC)C1CCN(c2cnc(C(=O)Nc3cc(CCc4cc(OC)cc(OC)c4)n[nH]3)cn2)C1 (centres unmarked) [Example 158, 5-(3-diethylaminopyrrolidin-1-yl)-N-[5-[2-(3,5-dimethoxyphenyl)ethyl]-2H-pyrazol-3-yl]pyrazine-2-carboxamide] | 2.9 |
| CCN1CCC(c2ccc(C(=O)Nc3cc(CCc4cc(OC)cc(OC)c4)n[nH]3)cc2)CC1 [Example 159, N-[5-[2-(3,5-dimethoxyphenyl)ethyl]-2H-pyrazol-3-yl]-4-(1-ethylpiperidin-4-yl)benzamide] | 0.97 |
| COCC1CN(c2ncc(C(=O)Nc3cc(CCc4cc(OC)cc(OC)c4)n[nH]3)cn2)CCN1 (centres unmarked) [Example 160, N-[5-[2-(3,5-dimethoxyphenyl)ethyl]-2H-pyrazol-3-yl]-2-[3-(methoxymethyl)piperazin-1-yl]pyrimidine-5-carboxamide] | 4.3 |
| COc1cc(CCc2cc(NC(=O)c3cnc(C4CCN(C)CC4)nc3)[nH]n2)cc(OC)c1 [Example 162, N-[5-[2-(3,5-dimethoxyphenyl)ethyl]-2H-pyrazol-3-yl]-2-(1-methylpiperidin-4-yl)pyrimidine-5-carboxamide] | 36 |
| COc1cc(CCc2cc(NC(=O)c3ccc(N4CCCN(C5CC5)CC4)cc3)[nH]n2)cc(OC)c1 [Example 165, 4-(4-cyclopropyl-1,4-diazepan-1-yl)-N-[5-[2-(3,5-dimethoxyphenyl)ethyl]-2H-pyrazol-3-yl]benzamide] | 0.064 |
| COc1cc(CCc2cc(NC(=O)c3ccc(N4CCCN(C(C)C)CC4)cc3)[nH]n2)cc(OC)c1 [Example 166, N-[5-[2-(3,5-dimethoxyphenyl)ethyl]-2H-pyrazol-3-yl]-4-(4-propan-2-yl-1,4-diazepan-1-yl)benzamide] | 0.7 |
| COc1cc(CCc2cc(NC(=O)c3ccc(N4CCCN(C(C)C)CC4)s3)[nH]n2)cc(OC)c1 [Example 168, N-[5-[2-(3,5-dimethoxyphenyl)ethyl]-2H-pyrazol-3-yl]-5-(4-propan-2-yl-1,4-diazepan-1-yl)thiophene-2-carboxamide] | 1.5 |
| CCN1CCCN(c2ccc(C(=O)Nc3cc(CCc4cc(OC)cc(OC)c4)n[nH]3)cc2)CC1 [Example 170, N-[5-[2-(3,5-dimethoxyphenyl)ethyl]-2H-pyrazol-3-yl]-4-(4-ethyl-1,4-diazepan-1-yl)benzamide] | 0.71 |
| COc1cc(CCc2cc(NC(=O)c3cnc(N4CCCN(C(C)C)CC4)nc3)[nH]n2)cc(OC)c1 [Example 173, N-[5-[2-(3,5-dimethoxyphenyl)ethyl]-2H-pyrazol-3-yl]-2-(4-propan-2-yl-1,4-diazepan-1-yl)pyrimidine-5-carboxamide] | 18 |
| COc1cc(CCc2cc(NC(=O)c3cnc(N4CCCN(C5CC5)CC4)nc3)[nH]n2)cc(OC)c1 [Example 177, 2-(4-cyclopropyl-1,4-diazepan-1-yl)-N-[5-[2-(3,5-dimethoxyphenyl)ethyl]-2H-pyrazol-3-yl]pyrimidine-5-carboxamide] | 7.3 |
